Measurements taken from patent publication US6043263A, “(2,3-dihydrobenzofuranyl)-thiazoles as phosphodiesterase inhibitors” (Byk Gulden Lomberg Chemische Fabrik GmbH, priority 1996, dated 2000).
Structures can show the parent of a compound that is named as a salt.

Test system: PDE IV
Assay: Inhibition of PDE IV activity
Format: biochemical
Details: method of Bauer and Schwabe adapted to microtiter plates
Experimental: The activity test was carried out according to the method of Bauer and Schwabe, which was adapted to microtiter plates (Naunyn-Schmiedeberg's Arch. Pharmacol. 311, 193-198, 1980). In this test, the PDE reaction takes place in the first step. In a second step, the charged 5'-nucleotide is cleaved to give the uncharge nucleoside by a 5'-nucleotidase of the snake veno of Ophiophagus hannah (king cobra). In the third step, the nucleoside is separated from the remaining charged substrate on ion exchange columns. The columns are eluted directly into minivials using 2 ml of 30 mM ammonium formate (pH 6.0) to which a further 2 ml of scintillator fluid is added for counting.
The inhibitory values determined for the compounds according to the invention result from Table 1 which follows, in which the numbers of the compounds correspond to the numbers of the examples.

Row | Compound | -log IC50
1 | COc1ccc(-c2csc(-c3cccnc3)n2)c2c1OC1(CCCC1)C2 [Compound 1, 3-[4-(2,3-Dihydro-7-methoxybenzofuran-2-spiro-1'-cyclopentan-4-yl)thiazol-2-yl]pyridine] | 7.74
2 | COc1ccc(-c2csc(-c3ccncc3)n2)c2c1OC1(CCCC1)C2 [Compound 2, 4-[4-(2,3-Dihydro-7-methoxybenzofuran-2-spiro-1'-cyclopentan-4-yl)thiazol-2-yl]pyridine] | 7.25
3 | CCOC(=O)c1cc(-c2nc(-c3ccc(OC)c4c3CC3(CCCC3)O4)cs2)ccn1 [Compound 3, Ethyl 4-[4-(2,3-Dihydro-7-methoxybenzofuran-2-spiro-1'-cyclopentan-4-yl)thiazol-2-yl]pyridine-2-carboxylate] | 7.22
4 | COc1ccc(-c2csc(-c3ccnc(C(=O)O)c3)n2)c2c1OC1(CCCC1)C2 [Compound 4, 4-[4-(2,3-Dihydro-7-methoxybenzofuran-2-spiro-1'-cyclopentan-4-yl)thiazol-2-yl]pyridine-2-carboxylic acid semihydrochloride] | 6.85
5 | COc1ccc(-c2csc(-c3cccc(C(=O)O)c3)n2)c2c1OC1(CCCC1)C2 [Compound 5, 3-[4-(2,3-Dihydro-7-methoxybenzofuran-2-spiro-1'-cyclopentan-4-yl)thiazol-2-yl]benzoic acid] | 7.79
